Laboratory results reported in patent publication US7273865B2, “Thiazolopyridine” (Hoffmann-La Roche Inc., priority 2003, dated 2007).

Tests used:
[1] = target: T1, human adenosine A1 receptor (Homo sapiens, UniProt P30542); assay: Human adenosine A1 receptor [3H]-DPCPX binding assay; settings: recombinant receptor expressed in CHO cells, [3H]-DPCPX 0.6 nM, SPA; read-out: hA1 (converted)
T1 construct: expressed in transfected cells; host or cells: CHO cells, semliki forest virus expression system; membranes used
T1 sequence (P30542 1-326): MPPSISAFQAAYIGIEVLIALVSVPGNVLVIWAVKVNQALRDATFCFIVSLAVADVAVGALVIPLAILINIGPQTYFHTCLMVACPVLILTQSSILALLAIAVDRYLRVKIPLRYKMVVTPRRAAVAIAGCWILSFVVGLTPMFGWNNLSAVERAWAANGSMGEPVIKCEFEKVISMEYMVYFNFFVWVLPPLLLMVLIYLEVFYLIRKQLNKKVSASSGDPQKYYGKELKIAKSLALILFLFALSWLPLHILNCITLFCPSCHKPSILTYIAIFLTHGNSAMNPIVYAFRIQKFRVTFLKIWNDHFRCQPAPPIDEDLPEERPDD
Protocol: (§1) The human adenosine A1 receptor was recombinantly expressed in Chinese hamster ovary (CHO) cells using the semliki forest virus expression system. Cells were harvested, washed twice by centrifugation, homogenized and again washed by centrifugation. The [^3H]-DPCPX (([propyl-3H]8-cyclopentyl-1,3-dipropyxanthine); 0.6 nM) binding assay was carried out in 96-well plates in the presence of (per well) approximately 2.5 μg of membrane protein, 0.5 mg of Ysi-poly-1-lysine SPA beads and 0.1 U adenosine deaminase in a final volume of 200 μl of buffer (containing 50 mM Tris, 120 mM NaCl, 5 mM KCl, 2 mM CaCl2 and 10 mM MgCl2 (pH 7.4)). Non-specific binding was defined using xanthine amine congener (XAC; 2 μM). Compounds were tested at 10 concentrations from 10 μM-0.3 nM. All assays were conducted in duplicate and repeated at least two times. Assay plates were incubated for 1 hour at room temperature before centrifugation and then bound ligand determined using a Packard Topcount scintillation counter. IC50 values were calculated using a non-linear curve fitting program and Ki values calculated using the Cheng-Prussoff equation.

[2] = target: T2, human adenosine A2A receptor (Homo sapiens, UniProt P29274); assay: Human adenosine A2A receptor [3H]-SCH-58261 binding assay; settings: for Selectivity: hA2A versus hA1; for Ki: recombinant receptor expressed in CHO cells, [3H]-SCH-58261 1 nM, SPA, read-out: hA2A (converted)
T2 construct: expressed in transfected cells; host or cells: CHO cells, semliki forest virus expression system; membranes used
T2 sequence (P29274 whole entry): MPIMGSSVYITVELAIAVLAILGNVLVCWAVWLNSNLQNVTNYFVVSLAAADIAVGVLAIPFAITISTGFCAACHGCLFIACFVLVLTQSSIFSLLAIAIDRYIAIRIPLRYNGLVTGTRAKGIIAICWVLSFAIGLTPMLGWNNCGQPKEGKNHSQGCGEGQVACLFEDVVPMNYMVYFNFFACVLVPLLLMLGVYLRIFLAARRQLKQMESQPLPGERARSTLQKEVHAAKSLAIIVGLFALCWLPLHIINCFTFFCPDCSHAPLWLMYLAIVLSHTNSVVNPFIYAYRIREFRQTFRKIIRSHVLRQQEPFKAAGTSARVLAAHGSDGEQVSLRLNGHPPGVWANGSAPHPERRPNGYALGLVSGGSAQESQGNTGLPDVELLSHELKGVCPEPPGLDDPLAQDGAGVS
Protocol: as §1, with “A2A” for “A1”, “[^3H]-SCH-58261 (Dionisotti et al., 1997, Br J Pharmacol 121, 353; 1” for “[^3H]-DPCPX (([propyl-3H]8-cyclopentyl-1,3-dipropyxanthine); 0.6”

Ki [1]	Selectivity [2]	Ki [2]	SMILES
6460 nM	1647	3.89 nM	COc1cnc(N2CCOCC2)c2sc(NC(=O)c3ccnc(N4CCOCC4)c3)nc12 [Example 22, N-(7-Methoxy-4-morpholin-4-yl-thiazolo[5,4-c]pyridin-2-yl)-2-morpholin-4-yl-isonicotinamide]
1780 nM	420	4.17 nM	COc1cnc(N2CCOCC2)c2sc(NC(=O)c3ccc(F)cc3)nc12 [Example 1, 4-Fluoro-N-(7-methoxy-4-morpholin-4-yl-thiazolo[5,4-c]pyridin-2-yl)-benzamide]
–	535	13.8 nM	COc1ccc(C(=O)Nc2nc3c(OC)cnc(N4CCOCC4)c3s2)cc1OC [Example 8, 3,4-Dimethoxy-N-(7-methoxy-4-morpholin-4-yl-thiazolo[5,4-c]pyridin-2-yl)-benzamide]
1910 nM	384	5.01 nM	COc1ccc(C(=O)Nc2nc3c(OC)cnc(N4CCOCC4)c3s2)cc1 [Example 3, 4-Methoxy-N-(7-methoxy-4-morpholin-4-yl-thiazolo[5,4-c]pyridin-2-yl)-benzamide]
5010 nM	310	16.2 nM	COc1cnc(N2CCOCC2)c2sc(NC(=O)CC3CCOCC3)nc12 [Example 11, N-(7-Methoxy-4-morpholin-4-yl-thiazolo[5,4-c]pyridin-2-yl)-2-(tetrahydro-pyran-4-yl)-acetamide]
–	868	7.94 nM	COc1cnc(N2CCOCC2)c2sc(NC(=O)c3ccnc(N4CC(O)C4)c3)nc12 [Example 18, 2-(3-Hydroxy-azetidin-1-yl)-N-(7-methoxy-4-morpholin-4-yl-thiazolo[5,4-c]pyridin-2-yl)-isonicotinamide]
–	572	12.6 nM	COc1cnc(N2CCOCC2)c2sc(NC(=O)c3ccc(N4CCOCC4)cc3)nc12 [Example 29, N-(7-Methoxy-4-morpholin-4-yl-thiazolo[5,4-c]pyridin-2-yl)-4-morpholin-4-yl-benzamide]
3800 nM	527	7.24 nM	COc1cnc(N2CCOCC2)c2sc(NC(=O)c3ccc4c(c3)OCO4)nc12 [Example 9, Benzo [1,3]dioxole-5-carboxylic acid (7-methoxy-4-morpholin-4-yl-thiazolo[5,4-c]pyridin-2-yl)-amide]
1660 nM	312	5.37 nM	COc1cnc(N2CCOCC2)c2sc(NC(=O)c3cccc(F)c3)nc12 [Example 6, 3-Fluoro-N-(7-methoxy-4-morpholin-4-yl-thiazolo[5,4-c]pyridin-2-yl)-benzamide]
1350 nM	436	3.09 nM	COc1cccc(C(=O)Nc2nc3c(OC)cnc(N4CCOCC4)c3s2)c1 [Example 7, 3-Methoxy-N-(7-methoxy-4-morpholin-4-yl-thiazolo[5,4-c]pyridin-2-yl)-benzamide]

Continued, molecule first:

SMILES	Ki [1]	Selectivity [2]	Ki [2]
COc1cnc(N2CCOCC2)c2sc(NC(=O)c3ccnc(N4CC(OC)C4)c3)nc12 [Example 19, 2-(3-Methoxy-azetidin-1-yl)-N-(7-methoxy-4-morpholin-4-yl-thiazolo[5,4-c]pyridin-2-yl)-isonicotinamide]	1910 nM	347	5.5 nM
COc1cnc(N2CCOCC2)c2sc(NC(=O)N3CCC(C)(CO)CC3)nc12 [Example 43, 4-Hydroxymethyl-4-methyl-piperidine-1-carboxylic acid (7-methoxy-4-morpholin-4-yl-thiazolo[5,4-c]pyridin-2-yl)-amide]	7080 nM	593	11.7 nM
COc1cnc(N2CCOCC2)c2sc(NC(=O)N3CCC4(CCCO4)CC3)nc12 [Example 40, 1-Oxa-8-aza-spiro[4.5]decane-8-carboxylic acid (7-methoxy-4-morpholin-4-yl-thiazolo[5,4-c]pyridin-2-yl)-amide]	5890 nM	387	15.5 nM
COc1cnc(N2CCOCC2)c2sc(NC(=O)N3CCC(CO)CC3)nc12 [Example 36, 4-Hydroxymethyl-piperidine-1-carboxylic acid (7-methoxy-4-morpholin-4-yl-thiazolo[5,4-c]pyridin-2-yl)-amide]	3160 nM	468	6.76 nM
COc1cc(C(=O)Nc2nc3c(OC)cnc(N4CCOCC4)c3s2)ccn1 [Example 5, 2-Methoxy-N-(7-methoxy-4-morpholin-4-yl-thiazolo[5,4-c]pyridin-2-yl)-isonicotinamide]	6310 nM	489	12.9 nM
COc1cnc(N2CCOCC2)c2sc(NC(=O)c3ccnc(C)c3)nc12 [Example 4, N-(7-Methoxy-4-morpholin-4-yl-thiazolo[5,4-c]pyridin-2-yl)-2-methyl-isonicotinamide]	5750 nM	512	11.2 nM
COc1cnc(N2CCOCC2)c2sc(NC(=O)N3CCC4(CCN(C)C4=O)CC3)nc12 [Example 37, 2-Methyl-1-oxo-2,8-diaza-spiro [4.5] decane-8-carboxylic acid (7-methoxy-4-morpholin-4-yl-thiazolo[5,4-c]pyridin-2-yl)-amide]	–	346	20.9 nM
COc1cnc(N2CCOCC2)c2sc(NC(=O)c3cccc(N4CCOCC4)c3)nc12 [Example 30, N-(7-Methoxy-4-morpholin-4-yl-thiazolo[5,4-c]pyridin-2-yl)-3-morpholin-4-yl-benzamide]	7080 nM	1716	4.07 nM
COc1ccc(C(=O)Nc2nc3c(OC)cnc(N4CCOCC4)c3s2)cn1 [Example 21, 6-Methoxy-N-(7-methoxy-4-morpholin-4-yl-thiazolo[5,4-c]pyridin-2-yl)-nicotinamide]	–	519	14.1 nM
COc1cnc(N2CCOCC2)c2sc(NC(=O)c3ccc(CN4CCOCC4)cc3)nc12 [Example 39, N-(7-Methoxy-4-morpholin-4-yl-thiazolo[5,4-c]pyridin-2-yl)-4-morpholin-4-ylmethyl-benzamide]	–	446	16.2 nM
COc1cnc(N2CCOCC2)c2sc(NC(=O)c3ccnc(CN4CCOCC4)c3)nc12 [Example 33, N-(7-Methoxy-4-morpholin-4-yl-thiazolo[5,4-c]pyridin-2-yl)-2-morpholin-4-ylmethyl-isonicotinamide]	–	291	25.1 nM
COc1cnc(N2CCOCC2)c2sc(NC(=O)c3ccncc3)nc12 [Example 17, N-(7-Methoxy-4-morpholin-4-yl-thiazolo[5,4-c]pyridin-2-yl)-isonicotinamide]	5620 nM	258	21.9 nM
COCCN(C)Cc1ccc(C(=O)Nc2nc3c(OC)cnc(N4CCOCC4)c3s2)cc1 [Example 31, 4-{[(2-Methoxy-ethyl)-methyl-amino]-methyl}-N-(7-methoxy-4-morpholin-4-yl-thiazolo[5,4-c]pyridin-2-yl)-benzamide]	6030 nM	441	13.8 nM
